Source: PMC4128046, “Effect of a toggle switch mutation in TM6 of the human adenosine A3 receptor on Gi protein-dependent signalling and Gi-independent receptor internalization” (British Journal of Pharmacology, 2014)
Numbering of substitutions follows the chain as printed. Read-outs that look alike come from different tables or passages of the source.

Experiments:
Type in all cases: cell-based
[1] = molecular target: T1, human A3 receptor fused to YFP (A3-YFP) (Homo sapiens, UniProt P0DMS8); assay: Automated imaging of receptor internalization (granularity analysis), A3-YFP; settings: for Maximal internalization (%): percentage of internalization with 10 μM NECA in the cell line
T1 construct: cDNA encoding the full length human A3 receptor; expressed in transfected cells
T1 sequence (P0DMS8 1-318): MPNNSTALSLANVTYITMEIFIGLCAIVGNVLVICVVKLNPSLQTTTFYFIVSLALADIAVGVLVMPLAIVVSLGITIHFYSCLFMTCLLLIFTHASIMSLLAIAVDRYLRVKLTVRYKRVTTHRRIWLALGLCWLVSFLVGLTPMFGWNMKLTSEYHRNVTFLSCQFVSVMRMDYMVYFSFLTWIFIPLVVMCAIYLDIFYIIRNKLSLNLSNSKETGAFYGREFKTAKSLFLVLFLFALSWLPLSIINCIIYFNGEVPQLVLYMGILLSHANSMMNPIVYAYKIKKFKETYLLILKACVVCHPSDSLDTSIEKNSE
Source text: (§1) Immediately before experimentation, normal growth medium was replaced with serum-free medium. […] Medium was removed and cells were washed once in PBS. […] Images were obtained using an ImageXpress Ultra confocal plate reader (Molecular Devices, Sunnyvale, CA, USA). Four central images were obtained per well using a Plan Fluor 40x NA0.6 extra-long working distance objective. BiFC and YFP images were obtained by excitation with a 488 nm laser line with emission collected through a 525-550 nm band pass filter and H33342 images obtained by excitation with a 405 nm laser line and emission collected through a 447-460 nm band pass filter. Granularity analysis was performed on the resulting images using a granularity algorithm within MetaXpress software (Molecular Devices, Sunnyvale, CA, USA) and intensity above background was set for each individual experiment (Kilpatrick et al., [2010]). Areas of internalized receptors were identified by granularity analysis; granules were defined as having a diameter of between 7 and 15 μm and nuclei as having a diameter of between 6 and 9 μm, resulting in a measurement of the granule count per cell for each image. A basal and FSK control was included in each separate concentration-response CRE-SPAP gene transcription assay and cAMP accumulation assay to allow the responses in each cell line to be expressed as an inhibition of FSK-stimulated SPAP production. […] All data were fitted using non-linear regression in Prism 5 (GraphPad Software, San Diego, CA, USA). […] Statistical significance was determined by Student's unpaired t-test or by one-way ANOVA with Dunnett's post hoc analysis and P < 0.05 was considered statistically significant.

[2] = molecular target: T2, human A3 receptor W243F mutant fused to YFP (A3 W243F-YFP) (Homo sapiens, UniProt P0DMS8, W243F); assay: Automated imaging of receptor internalization (granularity analysis), A3 W243F-YFP; settings: A3 W243F-YFP cells
T2 construct: Full length A3 W243F-YFP was excised and subcloned into a native pcDNA3.1 vector; expressed in transfected cells
T2 sequence (P0DMS8 1-318 W243F): T1 sequence (P0DMS8 1-318) with W243F
Source text: as §1

A3-vYc/β-arrestin2-vYnL = molecular target: T3, A3-vYc/β-arrestin2-vYnL (Homo sapiens, UniProt P0DMS8); assay: BiFC of receptor with β-arrestin2 (automated imaging), A3-vYc; settings: A3-vYc/β-arrestin2-vYnL cells; for Maximal BiFC (%): percentage of 10 μM NECA in the cell line
T3 construct: cDNA encoding the full length human A3 receptor; expressed in transfected cells; host or cells: CHO-K1 stably expressing β-arrestin2-vYnL, stably co-transfected with A3-vYc

A3-YFP = molecular target: T4, A3-YFP (Homo sapiens, UniProt P0DMS8); assay: Confocal imaging of receptor internalization and membrane YFP fluorescence, A3-YFP; settings: A3-YFP cells, 10 μM agonist
T4 construct: cDNA encoding the full length human A3 receptor; expressed in transfected cells
T4 sequence (P0DMS8 1-318): T1 sequence (P0DMS8 1-318)
Procedure: Live-cell BiFC imaging was performed on A3-vYc/β-arrestin2-vYnL and A3 W243F-vYc/β-arrestin2-vYnL cells grown in Nunc Labtek 8-well plates, and images obtained using a Zeiss 710 confocal microscope (Carl Zeiss GmbH, Jena, Germany) fitted with a 63× plan-Apochromat NA1.4 Ph3 oil-immersion objective. Live-cell imaging analysis was performed on A3-YFP or A3 W243F-YFP CRE-SPAP cells and transiently expressed SNAP-A3 or SNAP-A3 W243F grown in Nunc Labtek 8-well plates, and images obtained using a Zeiss LSM5 Exciter confocal microscope (Carl Zeiss GmbH) fitted with a 63× plan-Apochromat NA1.4 DIC oil-immersion objective. For both YFP, BiFC and BG-AF488 label, a 488 nm argon laser was used to excite the fluorophore and emission was detected using a BP505-530 filter. Cells expressing the SNAP-tagged receptors were labelled with 1 μM SNAP-surface BG-AF488 (New England Biolabs) in DMEM/F12 medium for 30 min at 37°C/5% CO2. Before all imaging experiments, normal growth medium or medium containing BG-AF488 was removed and cells were washed twice in HEPES-buffered saline solution (HBSS; 25 mM HEPES, 10 mM glucose, 146 mM NaCl, 5 mM KCl, 1 mM MgSO4, 2 mM sodium pyruvate, 1.3 mM CaCl2) and fresh HBSS was added for analysis. […] Images of A3-YFP and A3 W243F-YFP cells were taken with same pinhole diameter, laser power, gain and offset to allow comparison of YFP fluorescence. To obtain fluorescence intensity values, a region of interest was drawn around the plasma membrane of 10 cells per image in Zeiss AIM 4.2 software (Carl Zeiss GmbH).

T3 sequence (P32121 whole entry partner, one chain of several): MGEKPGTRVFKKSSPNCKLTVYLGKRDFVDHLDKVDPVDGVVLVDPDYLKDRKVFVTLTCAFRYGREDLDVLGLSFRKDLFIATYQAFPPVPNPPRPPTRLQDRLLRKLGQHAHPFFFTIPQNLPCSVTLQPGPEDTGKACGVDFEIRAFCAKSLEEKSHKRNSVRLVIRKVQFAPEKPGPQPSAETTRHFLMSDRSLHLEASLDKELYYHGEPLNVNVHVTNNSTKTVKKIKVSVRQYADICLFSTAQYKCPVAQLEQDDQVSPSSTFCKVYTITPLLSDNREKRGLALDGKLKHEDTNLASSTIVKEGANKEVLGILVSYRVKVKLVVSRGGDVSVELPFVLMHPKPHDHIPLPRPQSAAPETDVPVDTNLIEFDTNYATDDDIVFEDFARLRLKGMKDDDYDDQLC

Row | EC50 ([1]; A3-YFP CHO CRE-SPAP cells, 45 min, granule count per cell, read-out: pEC50 (internalization) (converted)) [nM] | EC50 ([1]; A3-YFP cells, PTx 100 ng·mL−1 overnight, read-out: pEC50 (internalization) in the presence of PTx (converted)) [nM] | decrease in the maximal levels of internalization in the presence of PTx ([1]; A3-YFP cells, PTx pretreatment, reduction vs. 10 μM NECA internalization) [%] | effect of pretreatment on NECA-mediated internalization ([2]; 10 μM HEMADO 30 min before NECA 45 min) | % maximal internalization vs. 10 μM NECA at 2 h (BiFC) (A3-vYc/β-arrestin2-vYnL; 10 μM, 2 h) [%] | EC50 (A3-vYc/β-arrestin2-vYnL; 60 min, read-out: pEC50 (BiFC with β-arrestin2-vYnL) (converted)) [nM] | Compound | Maximal internalization (%) ([1]; A3-YFP cells) | accumulation of internalized receptor after 2 h stimulation ([2]; 10 μM agonist, 2 h) | Maximal BiFC (%) (A3-vYc/β-arrestin2-vYnL; 60 min) | internalization of the receptor seen in confocal images (A3-YFP) | reduction in membrane fluorescence (A3-YFP) [%] | Maximal internalization (%) ([2]; percentage of internalization with 10 μM NECA in the cell line)
1 | 245 | 282 | 30 ± 6 | virtually abolished | 84.3 ± 8.2 | 6.46 | CCCCC#Cc1nc(NC)c2ncn([C@@H]3O[C@H](CO)[C@@H](O)[C@H]3O)c2n1 [HEMADO, 2-(1-hexynyl)-N-methyladenosine] | 105.1±11.0 | no accumulation of internalized receptor could be detected | 72.2 ± 7.1 | substantial internalization | 50 | –
2 | – | – | – | – | – | – | CCNC(=O)[C@H]1O[C@@H](n2cnc3c(N)ncnc32)[C@H](O)[C@@H]1O [NECA, 5-(N-ethylcarboxamido)adenosine] | 100 | – | 100 | rapid internalization | 50 | 100
